Paper PMC8864869, “A short peptide derived from pigment epithelial-derived factor exhibits an angioinhibitory effect” (BMC Ophthalmology, 2022)
Where no end group is shown, it is not given here.

Key:
[1] = test system: p53, Bax, p21, cleaved caspase-3; assay: Western blot of p53, Bax, p21 and cleaved caspase-3 in RPMI8226 cells; format: cell-based, human; conditions: 10 μM inhibitor pretreatment, then VEGF + 25 μM 7-mer
Excerpt: Cell lysis and SDS–PAGE were as described previously. Antibodies used in this study were for active p38 MAPK and active JNK (Promega, Madison, WI), p38 MAPK/SAPK2, JNK (Upstate Biotechnology, Lake Placid, NY), p53 (Chemicon, Temecula, CA), bax, p21, cleaved caspase-3 and β-actin (Abcam Ltd., Cambridge, UK). Proteins of interest were detected using the appropriate IgG-horseradish peroxidase-linked secondary antibody (Santa Cruz Biotechnology) and enhanced chemiluminescence reagent (Amersham, Arlington Heights, IL). X-ray films were scanned on a model GS-700 Imaging Densitometer (Bio-Rad, Hercules, CA) and analyzed with Labworks 4.0 software. For quantification, blots from at least three independent experiments were used.
Fig. 4 The 7-mer induces JNK signaling to trigger p53/bax/p21^Waf1 expression in RPMI8226 cells. a and b Cell treatments were as described in Fig. 3. Cell lysates were then prepared for western blot analysis of p53, Bax, and p21. Representative blots and densitometric analyses from three independent experiments are shown. ^*P < 0.001 versus 7-mer-treated cells

[2] = test system: RPMI8226 cells; assay: Annexin V-FITC/PI double-staining apoptosis assay in RPMI8226 cells; format: cell-based, human
Method: (§1) Cell apoptosis was examined using a TACS annexin V-FITC kit according to the manufacturer’s instructions for in situ staining. The cell numbers were monitored by counterstaining with Hoechst 33342. Afterward, apoptosis was examined and photographed by a Zeiss epifluorescence microscope (× 100, 10 fields/sample). Images were recorded on Zeiss software.
Fig. 2 The 34-mer and 7-mer induce apoptosis of RPMI8226 cells. a Fluorescence microscopy of annexin V-FITC/PI double staining. Treatment of RPMI8226 cells was as described in Fig. 1. Apoptosis was determined by annexin V-FITC staining (green dots) and double stained with propidium iodide (red dots). A representative of three independent experiments is shown. b The percentage of apoptotic cells was quantified by dividing the number of annexin V-positive cells by the total number of cells counted by phase-contrast light microscopy. Control peptide indicates cells were treated with the 5-mer. Histograms show means ± SD. ^aP < 0.005 versus peptide solvent-treated cells. ^bP < 0.0002 versus VEGF-treated cells. ^cP < 0.001 versus 34-mer-treated cells
Fig. 3 The 7-mer induces JNK signaling to trigger RPMI8226 cell apoptosis. 3 × 10^5 cells were serum starved for 24 h and then exposed to 10 ng/ml VEGF and 25 μM 7-mer for the indicated time periods. a Western blotting was performed to detect the active phosphorylated forms of JNK (p-JNK) and p38 MAPK (p-p38), shown in the upper panels. Antibodies were then stripped and the blots were re-incubated with anti-JNK and anti-p38 MAPK antibodies (lower panels), respectively, to detect the levels of total JNK and p38 MAPK. b Densitometric analyses from three independent experiments are shown. c Cell were pretreated with 10 μM SP600125 or SB203580 for 10 min and then treated as described above for 24 h and apoptosis was quantified using the annexin V-FITC apoptosis detection kit. *P < 0.0001 versus 7-mer-treated cells

[3] = test system: HUVECs; assay: Annexin V-FITC apoptosis assay in HUVECs; format: cell-based, human; conditions: 0.5% FBS, 16 h
Method: (§2) Cells were grown in Medium 200 with LSGS (supplement contains 1.9% fetal bovine serum, 3 ng/ml bFGF, 10 μg/ml heparin, 1 μg/ml hydrocortisone, and 10 ng/ml EGF). Culture plates were coated with 2% gelatin. Cells (passages 4–8) were cultured at 37 °C in a humidified atmosphere of 5% CO2. For peptide treatment, HUVECs were cultured in low serum (0.5% FBS) medium containing 20 ng/ml VEGF and 7-mer peptide (20 μM, unless otherwise specified).
as §1
The experiment was repeated three times. Magnification is × 40. b The 7-mer induces HUVEC apoptosis in the presence of VEGF. Cell apoptosis was analyzed using the Annexin V-FITC Apoptosis Detection kit according to the in situ staining protocol after treatment for 16 h. Double staining with an annexin V-FITC and the fluorescent dye Hoechst 33342 was used to visualize the apoptotic cells (green) and nuclei (blue), respectively. A representative result of four independent experiments is shown. The percentages of apoptotic cells were quantified. ^aP < 0.005 versus VEGF-treated cells

[4] = test system: RPMI8226 cells; format: cell-based, human; conditions: for MTT value, VEGF-induced RPMI8226 cell proliferation: 10 ng/ml VEGF + 25 μM peptide, serum-free medium, solvent-treated/untreated cells set as 100%, three independent experiments
Method: Human multiple myeloma cells, RPMI8226 were purchased from Bioresource Collection and Research Center (Hsinchu, Taiwan). Cells were cultivated in RPMI1640 medium supplemented with 10% FBS, 50 μg/ml penicillin, 50 μg/ml streptomycin, and 2 mM L-glutamine at 37 °C in a 5% CO2 atmosphere. Cell viability was determined by an MTT assay. […] MTT stock solution added to medium alone was included as a negative control. Aliquots (450 μl) from each sample were transferred to a new well of a 48-well culture plate, 100 μl DMSO added with thorough mixing, and allowed to react at 37 °C for 20 min before reading the absorbance at 570 nm.

[5] = cited from earlier work; for anti-angiogenic and antitumor activities of human PEDF: previous studies
Excerpt: Pigment epithelial-derived factor (PEDF) was initially identified in the culture supernatant of human fetal retinal pigment epithelial cells, with the ability to promote neuronal differentiation of retinoblastoma Y79 cells. […] Presently, full-length PEDF is considered to be less suitable as an anti-angiogenic agent than PEDF-derived active fragments because of several issues, including antigenicity, s ... || Identification of angioinhibitory peptides derived from PEDF may be a promising strategy for improving the treatment of angiogenesis-related diseases. […] Here, we found for the first time that the 7-mer peptide (D64-S70), representing a minimal region within PEDF, reproduced the anti-VEGF effect, comparab ...

[6] = test system: HUVECs; assay: Endothelial cell capillary-like tube formation assay; format: cell-based, human; conditions: 20 ng/ml VEGF, 10 μM 7-mer, matrigel, 0.5% FBS, 6 h
Method: as §2
Growth factor-reduced matrigel was pipetted into pre-chilled 24-well plates (150 μl matrigel per well) and polymerized for 45 min at 37 °C. HUVECs (4 × 10^4 per well) in low serum (0.5% FBS) medium were treated with 20 ng/ml VEGF and 7-mer (10 μM) in matrigel coated plates. After 6 h of incubation, tubular structures were photographed. Images were captured using a Cannon camera on a Zeiss inverted microscope with magnification × 40.
The experiment was repeated three times. Magnification is × 40. b The 7-mer induces HUVEC apoptosis in the presence of VEGF. Cell apoptosis was analyzed using the Annexin V-FITC Apoptosis Detection kit according to the in situ staining protocol after treatment for 16 h. Double staining with an annexin V-FITC and the fluorescent dye Hoechst 33342 was used to visualize the apoptotic cells (green) and nuclei (blue), respectively. […] The percentages of apoptotic cells were quantified. ^aP < 0.005 versus VEGF-treated cells

Molecule: Oc1c2ccccc2c2c3c(cccc13)N=N2 [SP600125, reference compound]
- 7-mer-induced increases of p53, bax, p21 and cleaved caspase-3 after inhibitor pretreatment [1]: significantly inhibited
- 7-mer-induced RPMI8226 cell apoptosis after inhibitor pretreatment ([2]; 10 μM inhibitor for 10 min, then 10 ng/ml VEGF + 25 μM 7-mer for 24 h, 7-mer alone 38.6 ± 2.1%): 11.6 ± 1.5%

Molecule: VEGF
- apoptotic HUVECs, VEGF-treated only ([3]; 20 ng/ml VEGF): 6.3 ± 1.6%
- MTT value, RPMI8226 cells with VEGF alone ([4]; 10 ng/ml VEGF without peptide, 24 h, untreated cells set as 100%, mean ± SD): 120 ± 3.9%
- apoptotic (annexin V+) RPMI8226 cells with VEGF alone ([2]; 10 ng/ml VEGF, serum-free, serum deprivation alone 14.0 ± 1.7%): 6.5 ± 1.1%

Molecule: D64N/L65V double mutant of the 7-mer: 7-mer with D64N/L65V double mutation (NVYRVRS; ends and bridges not checked; UniProt P36955 64-70, looked up, variant D64N L65V)
- MTT value, VEGF-induced RPMI8226 cell proliferation ([4]; 24 h, mean ± SD): 117 ± 4.1%

Molecule: 7-mer L65 alanine substitution: 7-mer with single alanine substitution of L65 (DAYRVRS; ends and bridges not checked; UniProt P36955 64-70, looked up, variant L65A)
- MTT value, VEGF-induced RPMI8226 cell proliferation ([4]; 24 h, mean ± SD): 74 ± 0.9%

Molecule: 34-mer: PEDF amino acid positions Asp44-Asn77, N-acetylated, C-amidated (Ac-DPFFKVPVNKLAAAVSNFGYDLYRVRSSTSPTTN-NH2; UniProt P36955 44-77, looked up, fragment) [reference compound]
- apoptotic HUVECs (annexin V-FITC) ([3]; 20 ng/ml VEGF + peptide (20 μM), four independent experiments): 20.1 ± 4.4%
- cytotoxic effect on RPMI8226 cells in the absence of VEGF [4]: neither peptide had a significant cytotoxic effect
- MTT value, VEGF-induced RPMI8226 cell proliferation ([4]; 24 h, mean ± SD): 84 ± 4.0%
- dose dependence of cell viability of VEGF-treated RPMI8226 cells ([4]; 1, 5, 10 and 25 μM peptide with VEGF, MTT): cell viability decreased significantly with the 34-mer treatment at 10 and 25 μM, but not at 1 and 5 μM
- neurotrophic activity [5]: no neurotrophic activity
- anti-angiogenic and antitumor activities of human PEDF [5]: preserve the anti-angiogenic and antitumor activities of human PEDF
- apoptotic (annexin V+) RPMI8226 cells ([2]; 10 ng/ml VEGF + 25 μM peptide, 24 h, serum-free, early + late apoptosis, mean ± SD, three independent experiments): 25.1 ± 2.2%
- VEGF-stimulated tube-like network of HUVECs [6]: marked decrease of the VEGF-stimulated tube-like network

Molecule: 23-mer: PEDF fragment A55-N77 of previous studies (AAAVSNFGYDLYRVRSSTSPTTN; UniProt P36955 55-77, looked up, fragment)
- anti-angiogenic and antitumor activities of human PEDF [5]: devoid of PEDF activity

Molecule: 7-mer D64 alanine substitution: 7-mer with single alanine substitution of D64 (ALYRVRS; ends and bridges not checked; UniProt P36955 64-70, looked up, variant D64A)
- MTT value, VEGF-induced RPMI8226 cell proliferation ([4]; 24 h, mean ± SD): 69 ± 3.5%

Molecule: 18-mer: PEDF fragment Asn60-Asn77 of previous studies (NFGYDLYRVRSSTSPTTN; UniProt P36955 60-77, looked up, fragment)
- neurotrophic activity [5]: no neurotrophic activity
- anti-angiogenic and antitumor activities of human PEDF [5]: preserve the anti-angiogenic and antitumor activities of human PEDF

B1: PEDF: a 50 kDa secreted glycoprotein (protein, UniProt P36955 20-418, looked up)
Pigment epithelium-derived …: QNPASPPEEGSPDPDSTGALVEEEDPFFKVPVNKLAAAVSNFGYDLYRVRSSTSPTTNVLLSPLSVATALSALSLGAEQRTESIIHRALYYDLISSPDIHGTYKELLDTVTAPQKNLKSASRIVFEKKLRIKSSFVAPLEKSYGTRPRVLTGNPRLDLQEINNWVQAQMKGKLARSTKEIPDEISILLLGVAHFKGQWVTKFDSRKTSLEDFYLDEERTVRVPMMSDPKAVLRYGLDSDLSCKIAQLPLTGSMSIIFFLPLKVTQNLTLIEESLTSEFIHDIDRELKTVQAVLTVPKLKLSYEGEVTKSLQEMKLQSLFDSPDFSKITGKPIKLTQVEHRAGFEWNEDGAGTTPSPGLQPAHLTFPLDYHLNQPFIFVLRDTDTGALLFIGKILDPRGP
- MTT value, VEGF-induced RPMI8226 cell proliferation ([4]; 24 h, mean ± SD): 93 ± 3.8%
